The values below are quoted from earlier work in US20130122099A1, “POLYETHYLENE GLYCOL-COATED SODIUM CARBONATE AS A PHARMACEUTICAL EXCIPIENT AND COMPOSITIONS PRODUCED FROM THE SAME” (priority 2008, published 2013).

Read-outs that look alike come from different tables or passages of the source.

As to `Cc1cc(C)nc(NS(=O)(=O)c2ccc(N)cc2)n1` [Sulfamethazine], the pKa (as a rule, the negative logarithm of the acid dissociation constant) is 7.4.
Turning to `CCN(CC)CCCC(C)Nc1cc(OC)cc2cccnc12` (stereo not shown) [Pamaquine], the pKa was 8.7.
In the case of `CN1CCN2c3ncccc3Cc3ccccc3C2C1` (stereo not shown) [Mirtazapine], the pKa is listed as 7.7.
Consider `c1ccc(CN(CC2=NCCN2)c2ccccc2)cc1` [antazoline], for which the pKa is 7.2.
For `CN(C)CCOC(=O)C(c1ccccc1)C1(O)CCCC1` (stereo not shown) [cyclopentolate], the pKa is given as 7.9.
In the case of `CN1CCCCC1CCN1c2ccccc2Sc2ccc([S+](C)[O-])cc21` (stereo not shown) [Mesoridazine], the pKa was 8.2.
As to `COc1ccc(CN(CCN(C)C)c2ccccn2)cc1` [mepyramine], the pKa is 8.9.
As for `CC[C@@H]1C(=O)OC[C@@H]1Cc1cncn1C` [Pilocarpine], the pKa is on record as 6.6.
As to `Clc1ccc2nsnc2c1NC1=NCCN1` [Tizanidine], the pKa is 9.0.
`OC1(c2ccc(Cl)c(C(F)(F)F)c2)CCN(CCCC(c2ccc(F)cc2)c2ccc(F)cc2)CC1` [penfluridol]: the pKa is 8.0.
Regarding `O=C1CN(/N=C/c2ccc(-c3ccc([N+](=O)[O-])cc3)o2)C(O)=N1` [dantrolene], the pKa was 7.5.
Take `COc1cc(N)c(Cl)cc1C(=O)NC1CCN(CCCOc2ccc(F)cc2)CC1OC` (stereo not shown) [Cisapride]: the pKa is reported as 7.83.
`O=C1NCN(c2ccccc2)C12CCN(CCCC(c1ccc(F)cc1)c1ccc(F)cc1)CC2` [fluspirilene]: the pKa is given as 7.32.
For `CC(C)(C)NC[C@H](O)COc1nsnc1N1CCOCC1` [Timolol], the pKa is given as 9.2.
For the compound `O=C1CC2(CCCC2)CC(=O)N1CCCCN1CCN(c2ncccn2)CC1` [Buspirone], the pKa is given as 7.2.
Take `NS(=O)(=O)c1cc2c(cc1C(F)(F)F)NCNS2(=O)=O` [hydroflumethiazide]: the pKa was 8.9.
`CN(C)CCC=C1c2ccccc2COc2ccccc21` [Doxepin]: the pKa is on record as 8.2.
In the case of `CCC[C@@H]1C[C@@H](C(=O)N[C@@H]([C@H]2O[C@H](SC)[C@H](O)[C@@H](O)[C@H]2O)[C@@H](C)O)N(C)C1` [lincomycin], the pKa is 7.5.
For the compound `CCC1(c2ccccc2)NC(=O)N(C)C1=O` (stereo not shown) [mephenytoin], the pKa is 8.33.
Take `O=c1[nH]c(=O)n([C@H]2C[C@H](O)[C@@H](CO)O2)cc1I` [Idoxuridine]: the pKa is 8.3.
For `CN1C2CCCC1CC(NC(=O)c1nn(C)c3ccccc13)C2` (stereo not shown) [Granisetron], the pKa is recorded as 9.4.
For the compound `CCN(CC)C(=O)N[C@H]1C[C@@H]2c3cccc4[nH]cc(c34)C[C@H]2N(C)C1` [Terguride], the pKa is listed as 7.2.
For the compound `Cc1ccc2c(c1)c1c3n2CCNC3CCC1` (stereo not shown) [Pirlindole], the pKa was 7.7.
In the case of `OCCOCCN1CCN(C(c2ccccc2)c2ccc(Cl)cc2)CC1` (stereo not shown) [hydroxyzine], the pKa was 7.1.
As for `N#Cc1ccc2c(c1)N(CCCN1CCC(O)CC1)c1ccccc1S2` [Periciazine], the pKa is listed as 8.3.
Regarding `CNCCC(Oc1ccc(C(F)(F)F)cc1)c1ccccc1` (stereo not shown) [Fluoxetine], the pKa was 8.7.
As to `CCCCOc1cc(C(=O)NCCN(CC)CC)c2ccccc2n1` [Dibucaine], the pKa is reported as 8.5.
For `CN[C@H]1CC[C@@H](c2ccc(Cl)c(Cl)c2)c2ccccc21` [Sertraline], the pKa is given as 9.4.
For `CN1C(=O)CC(c2ccccc2)C1=O` (stereo not shown) [phensuximide], the pKa was 9.2.
For `CN1CCN(C(c2ccccc2)c2ccc(Cl)cc2)CC1` (stereo not shown) [chlorcyclizine], the pKa is listed as 9.65.
Regarding `CN1CCC(=C2c3ccccc3CC(=O)c3sccc32)CC1` [Ketotifen], the pKa was 8.75.
As to `Cc1ccnc(NS(=O)(=O)c2ccc(N)cc2)n1` [Sulfamerazine], the pKa was 8.0.
Regarding `OC(CNCC(O)C1CCc2cc(F)ccc2O1)C1CCc2cc(F)ccc2O1` (stereo not shown) [Nebivolol], the pKa was 8.6.
Regarding `C=CCN1CC[C@]23c4c5ccc(O)c4O[C@H]2C(=O)CC[C@@]3(O)[C@H]1C5` [Naloxone], the pKa is 7.82.
As to `CN1CCN2c3ccccc3Cc3ccccc3C2C1` (stereo not shown) [Mianserine], the pKa is recorded as 8.3.
Consider `COc1cccc2c1C(=O)c1c(O)c3c(c(O)c1C2=O)C[C@@](O)(C(C)=O)C[C@@H]3O[C@H]1C[C@H](N)[C@H](O)[C@H](C)O1` [daunomycin], for which the pKa is recorded as 8.2. Further, under “listed as daunorubicin”, the pKa is recorded as 8.25.
Turning to `COc1ccc2c(c1OC)C(=O)O[C@@H]2[C@H]1c2c(cc3c(c2OC)OCO3)CCN1C` [Noscapine], the pKa is 7.8.
In the case of `CCn1cc(C(=O)O)c(=O)c2cc(F)c(N3CCNCC3)cc21` [norfloxacin], the pKa was 8.75.
Turning to `CC(=O)/N=c1/sc(S(N)(=O)=O)nn1C` [Methazolamide], the pKa is listed as 7.3.
With `CC(CCc1ccccc1)NCC(O)c1ccc(O)c(C(N)=O)c1` (stereo not shown) [Labetalol], the pKa is given as 8.7.
With `CCC1(C)CC(=O)NC1=O` (stereo not shown) [ethosuximide], the pKa was 9.3.
Regarding `Cc1nccn1CC1CCc2c(c3ccccc3n2C)C1=O` (stereo not shown) [Ondansetron], the pKa was 7.7.
Regarding `OCCN1CCN(CCCN2c3ccccc3Sc3ccc(Cl)cc32)CC1` [Perphenazine], the pKa is 7.94.
In the case of `CN1CCN(C(c2ccccc2)c2ccccc2)CC1` [Cyclizine], the pKa was 7.7.
For `CC1(C)S[C@@H]2[C@H](NC(=O)[C@H](N)c3ccc(O)cc3)C(=O)N2[C@H]1C(=O)O` [amoxicillin], the pKa was 7.4.
